US20080009511A1, “Cancer treatment with compounds inhibiting PKC alpha” (priority 2004, published 2008)

Legend:
U251 human glioma cells = assay: Cell viability assay (trypan blue dye exclusion), viable cells counted at day 6; format: cell-based; conditions: 10 micromoles; for Treated (cell number × 10^5): about 4×10^4 cells seeded, untreated 9.6 ± 0.5; for % inhibiton: growth vs untreated
Procedure: (§1) The following cancer cells were maintained in Dulbecco's modified Eagle medium (DMEM) supplemented with 10 percent bovine calf serum. Cells were seeded for 24 hours. Then they were treated with PKC inhibitors or left untreated. The cells were then collected periodically and evaluated using trypan blue dye exclusion to assess viability using the method described by C Y Chen, et al., in J. Biol. Chem. 273:16700-16709. Cultures containing about 4×10^4 cells were treated with 5 micromoles of Gö7874 (except that PC3 prostate cancer cells were treated with 10 micromoles) and the viable cells were counted at day 6. […] Cultures containing about 4×10^4 cells were treated with or without 10 micromoles of Gö6850 and the viable cells were counted at day 6. […] Cultures containing about 4×10^4 cells were treated with or without 10 micromoles of NGIC-I and the viable cells were counted at day 6. […] Cultures containing about 4×10^4 cells were treated with or without 10 micromoles of Ro31-7549 and the viable cells were counted at day 6. […] Cultures containing about 4×10^4 cells were treated with or without 10 micromoles of Ro31-8220 and the viable cells were counted at day 6. […] Cultures containing about 4×10^4 cells were treated with or without 10 micromoles of Ro31-8425 and the viable cells were counted at day 6. […] Cultures containing about 4×10^4 cells were treated with or without 10 micromoles of Ro31-0432 and the viable cells were counted at day 6.

[1] = test system: H460 human lung cancer cells; assay: as above; format: cell-based; conditions: 10 micromoles; for Treated (cell number × 10^5): about 4×10^4 cells seeded, untreated 2.4 ± 0.2; for % inhibiton: growth vs untreated
Procedure: as §1

[2] = test system: PC3 human prostate cancer cells; assay: as above; format: cell-based; conditions: 10 micromoles; for Treated (cell number × 10^5): about 4×10^4 cells seeded, untreated 7.1 ± 0.3; for % inhibiton: growth vs untreated
Procedure: as §1

[3] = test system: AGS human gastric cancer cells; assay: as above; format: cell-based; conditions: 10 micromoles; for Treated (cell number × 10^5): about 4×10^4 cells seeded, untreated 2.4 ± 0.3; for % inhibiton: growth vs untreated
Procedure: as §1

[4] = test system: HT29 human colon cancer cells; assay: as above; format: cell-based; conditions: 10 micromoles; for Treated (cell number × 10^5): about 4×10^4 cells seeded, untreated 3.8 ± 0.4; for % inhibiton: growth vs untreated
Procedure: as §1

[5] = test system: PANC-1 human pancreatic carcinoma cells; assay: as above; format: cell-based; conditions: 10 micromoles; for Treated (cell number × 10^5): about 4×10^4 cells seeded, untreated 2.1 ± 0.3; for % inhibiton: growth vs untreated
Procedure: as §1

[6] = test system: A431 human epidermoid carcinoma cells; assay: as above; format: cell-based; conditions: 10 micromoles; for Treated (cell number × 10^5): about 4×10^4 cells seeded, untreated 5.4 ± 0.4; for % inhibiton: growth vs untreated
Procedure: as §1

[7] = test system: MDA-MB-468 human breast cancer cells; assay: as above; format: cell-based; conditions: 10 micromoles; for Treated (cell number × 10^5): about 4×10^4 cells seeded, untreated 6.1 ± 0.4; for % inhibiton: growth vs untreated
Procedure: as §1

[8] = test system: NBT-II human bladder cancer cells; assay: as above; format: cell-based; conditions: 10 micromoles; for Treated (cell number × 10^5): about 4×10^4 cells seeded, untreated 2.9 ± 0.4; for % inhibiton: growth vs untreated
Procedure: as §1

[9] = test system: HepG2 human liver cancer cells; assay: as above; format: cell-based; conditions: 10 micromoles; for Treated (cell number × 10^5): about 4×10^4 cells seeded, untreated 4.2 ± 0.4; for % inhibiton: growth vs untreated
Procedure: as §1

[10] = test system: Hela human cervical cancer cells; assay: as above; format: cell-based; conditions: 10 micromoles; for Treated (cell number × 10^5): about 4×10^4 cells seeded, untreated 3.4 ± 0.4; for % inhibiton: growth vs untreated
Procedure: as §1

[11] = test system: Jurkat cells (a human acute T-cell leukemia cell line); assay: as above; format: cell-based; conditions: 10 micromoles; for Treated (cell number × 10^5): about 4×10^4 cells seeded, untreated 8.8 ± 0.4; for % inhibiton: growth vs untreated
Procedure: as §1

human cancer cells = assay: Cell viability assay, summary over the panel of cancer cells; format: cell-based; conditions: 10 micromoles; day 6; cell lines not named as going to apoptosis
Procedure: The following cancer cells were maintained in Dulbecco's modified Eagle medium (DMEM) supplemented with 10 percent bovine calf serum. Cells were seeded for 24 hours. Then they were treated with PKC inhibitors or left untreated. The cells were then collected periodically and evaluated using trypan blue dye exclusion to assess viability using the method described by C Y Chen, et al., in J. Biol. Chem. 273:16700-16709. Cultures containing about 4×10^4 cells were treated with or without 10 micromoles of Gö6850 and the viable cells were counted at day 6. […] Cultures containing about 4×10^4 cells were treated with or without 10 micromoles of NGIC-I and the viable cells were counted at day 6. […] Cultures containing about 4×10^4 cells were treated with or without 10 micromoles of Ro31-7549 and the viable cells were counted at day 6. […] Cultures containing about 4×10^4 cells were treated with or without 10 micromoles of Ro31-8220 and the viable cells were counted at day 6. […] Cultures containing about 4×10^4 cells were treated with or without 10 micromoles of Ro31-8425 and the viable cells were counted at day 6. […] Cultures containing about 4×10^4 cells were treated with or without 10 micromoles of Ro31-0432 and the viable cells were counted at day 6.

KB oral cancer cells = assay: Cell viability assay (trypan blue dye exclusion), viable cells counted at day 6; format: cell-based, human; conditions: 10 micromoles; for Treated (cell number × 10^5): about 4×10^4 cells seeded, untreated 3.8 ± 0.4; for % inhibiton: growth vs untreated
Procedure: as §1

[12] = test system: 3Y1 rat fibroblast cells overexpressing the epidermal growth factor receptor (EGFR); assay: Soft agar/cell transformation assay; format: cell-based; conditions: 1 micromole with EGF (100 ng/ml), in contrast to EGF alone
Source text: 1×10^3 3Y1 rat fibroblast cells overexpressing the epidermal growth factor receptor (EGFR) were suspended in top agar (consisting of 20 percent calf serum, 0.38 percent agar and the remainder DMEM) and overlaid onto bottom agar (DMEM, 20 percent calf serum and 0.7 percent agar) as reported by Sementchenko et al., in Onocgen 17:2883-2888.

[13] = test system: 3Y1 rat fibroblast cells overexpressing EGF receptors (3Y1-EGFR cells); assay: EGF-induced cell transformation (transformed morphology); format: cell-based; conditions: 1 micromole

Row | SMILES | Treated (cell number × 10^5) (U251 human glioma cells) | % inhibiton (U251 human glioma cells) [%] | Treated (cell number × 10^5) [1] | % inhibiton [1] | Treated (cell number × 10^5) [2] | % inhibiton [2] [%] | cells that went to apoptosis upon treatment [3] | Treated (cell number × 10^5) [3] | % inhibiton [3] | Treated (cell number × 10^5) [4] | % inhibiton [4] [%] | cells that went to apoptosis upon treatment [5] | Treated (cell number × 10^5) [5] | % inhibiton [5] | Treated (cell number × 10^5) [6] | % inhibiton [6] [%] | cells that went to apoptosis upon treatment [7] | Treated (cell number × 10^5) [7] | % inhibiton [7] | cells that went to apoptosis upon treatment [8] | also measured
1 | Cn1cc(C2=C(c3cn(CCCSC(=N)N)c4ccccc34)C(=O)NC2=O)c2ccccc21 [Ro31-8220] | 1.4 × 10^5 | 85 | 0.4 × 10^5 | 85% | 2.7 × 10^5 | 62 | all | 0 × 10^5 | * (indicates the inhibitor causes significant cell death, and cell number is less than originally seeded cell number.) | 0.6 × 10^5 | 85 | all | 0 × 10^5 | * (indicates the inhibitor causes significant cell death, and cell number is less than originally seeded cell number.) | 2.1 × 10^5 | 60 | significant number | 0.2 ± 0.05 × 10^5 | * (indicates the inhibitor causes significant cell death, and cell number is less than originally seeded cell number.) | all | Treated (cell number × 10^5) [8]: 0 × 10^5; % inhibiton [8]: * (indicates the inhibitor causes significant cell death, and cell number is less than originally seeded cell number.); Treated (cell number × 10^5) [9]: 0.4 × 10^5; % inhibiton [9]: 90%; cells that went to apoptosis upon treatment [10]: significant number; Treated (cell number × 10^5) [10]: 6.0 × 10^5; % inhibiton [10]: * (indicates the inhibitor causes significant cell death, and cell number is less than originally seeded cell number.); Treated (cell number × 10^5) [11]: 0.5 × 10^5; % inhibiton [11]: 94%; inhibition of growth in contrast to untreated cells, range over the other treated cancer cells (human cancer cells): 60-94%; cells that went to apoptosis upon treatment (KB oral cancer cells): all; Treated (cell number × 10^5) (KB oral cancer cells): 0 × 10^5; % inhibiton (KB oral cancer cells): * (indicates the inhibitor causes significant cell death, and cell number is less than originally seeded cell number.)
2 | Cl.Cn1cc(C2=C(c3c4n(c5ccccc35)CCC(CN)C4)C(=O)NC2=O)c2ccccc21 (centres unmarked) [Ro31-8425] | 1.4 × 10^5 | 85 | 0 × 10^5 | * (indicates the inhibitor causes significant cell death, and cell number is less than originally seeded cell number.) | 3 × 10^5 | 53 | all | 0 × 10^5 | * (indicates the inhibitor causes significant cell death, and cell number is less than originally seeded cell number.) | 0.6 × 10^5 | 85 | all | 0 × 10^5 | * (indicates the inhibitor causes significant cell death, and cell number is less than originally seeded cell number.) | 2.6 × 10^5 | 52 | significant number | 0.1 ± 0.05 × 10^5 | * (indicates the inhibitor causes significant cell death, and cell number is less than originally seeded cell number.) | significant number | reduction of colony number in soft agar [12]: 72%; cell apoptosis during co-treatment ([13]; co-treatment with 100 ng/ml EGF): without detected cell apoptosis; effect on EGF-induced transformed morphology ([13]; co-treatment with 100 ng/ml EGF for 48 hours): partially blocked; cells that went to apoptosis upon treatment [1]: all; Treated (cell number × 10^5) [8]: 0.3 × 10^5; % inhibiton [8]: * (indicates the inhibitor causes significant cell death, and cell number is less than originally seeded cell number.); Treated (cell number × 10^5) [9]: 0.4 × 10^5; % inhibiton [9]: 90%; cells that went to apoptosis upon treatment [10]: all; Treated (cell number × 10^5) [10]: 0 × 10^5; % inhibiton [10]: * (indicates the inhibitor causes significant cell death, and cell number is less than originally seeded cell number.); cells that went to apoptosis upon treatment [11]: significant number; Treated (cell number × 10^5) [11]: 0.3 × 10^5; % inhibiton [11]: * (indicates the inhibitor causes significant cell death, and cell number is less than originally seeded cell number.); inhibition of growth in contrast to untreated cells, range over the other treated cancer cells (human cancer cells): 52-90%; cells that went to apoptosis upon treatment (KB oral cancer cells): all; Treated (cell number × 10^5) (KB oral cancer cells): 0 × 10^5; % inhibiton (KB oral cancer cells): * (indicates the inhibitor causes significant cell death, and cell number is less than originally seeded cell number.)
